Some results are limits rather than exact numbers.

Sequence of PARP7 (Q7Z3E1 whole entry): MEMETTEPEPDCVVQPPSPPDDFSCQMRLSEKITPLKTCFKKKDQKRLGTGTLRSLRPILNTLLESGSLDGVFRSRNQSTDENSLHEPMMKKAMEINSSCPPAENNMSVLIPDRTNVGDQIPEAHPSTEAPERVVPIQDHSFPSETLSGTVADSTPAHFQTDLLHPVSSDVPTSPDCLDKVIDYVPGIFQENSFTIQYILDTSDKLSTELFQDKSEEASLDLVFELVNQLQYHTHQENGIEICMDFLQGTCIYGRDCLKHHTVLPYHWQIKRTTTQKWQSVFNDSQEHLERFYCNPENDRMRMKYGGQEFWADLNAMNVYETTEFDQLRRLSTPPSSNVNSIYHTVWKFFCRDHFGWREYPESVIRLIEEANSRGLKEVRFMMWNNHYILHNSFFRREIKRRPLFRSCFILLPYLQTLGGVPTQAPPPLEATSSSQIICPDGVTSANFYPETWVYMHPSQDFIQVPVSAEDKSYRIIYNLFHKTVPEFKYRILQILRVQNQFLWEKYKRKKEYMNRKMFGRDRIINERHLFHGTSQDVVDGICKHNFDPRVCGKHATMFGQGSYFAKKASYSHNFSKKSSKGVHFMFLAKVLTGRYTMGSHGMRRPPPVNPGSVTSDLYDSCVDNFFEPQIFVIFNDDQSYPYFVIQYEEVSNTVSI

The experiment has as its target PARP7 (Homo sapiens (Human), UniProt Q7Z3E1). Description: Enzymatic assay for inhibition of PARP7: TR-FRET displacement of biotinylated Probe A from the TIPARP active site. Type of experiment: binding. Particulars: Table A-1. The method in brief:
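Compounds were tested as dose-response series, and reactions were incubated a further 30 min at 25° C. TR-FRET was read at 320 nm excitation with 615 and 665 nm emission after a 90 μs delay. The 665/615 ratio gave the TIPARP–Probe A complex, and % inhibition was fitted against concentration.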
In general, IC50 refers to the point on the concentration scale where inhibition reaches its midpoint. Read a high IC50 as a need for much substance. Molecule `CN(CCC(=O)N1CCN(c2ccc(C#N)cn2)CC1)C[C@@H]1c2ccccc2CN1c1cn[nH]c(=O)c1C(F)(F)F` [Example 427, (S)-6-(4-(3-(Methyl((2-(6-oxo-5-(trifluoromethyl)-1,6-dihydropyridazin-4-yl)isoindolin-1-yl)methyl)amino)propanoyl)piperazin-1-yl)nicotinonitrile] came in with an IC50 below 100 nM.

The molecule `CN(CCC(=O)N1CCN(c2ccc(C#N)cn2)CC1)C[C@H]1c2ccccc2CN1c1cn[nH]c(=O)c1C(F)(F)F` [Example 428, (R)-6-(4-(3-(Methyl((2-(6-oxo-5-(trifluoromethyl)-1,6-dihydropyridazin-4-yl)isoindolin-1-yl)methyl)amino)propanoyl)piperazin-1-yl)nicotinonitrile] returned an IC50 of 100 to 1000 nM.

Molecule `CN(CCC(=O)N1CCN(c2ccc(C#N)cn2)CC1)C[C@@H]1c2ccccc2CN1c1cn[nH]c(=O)c1Cl` [Example 429, (S)-6-(4-(3-(((2-(5-Chloro-6-oxo-1,6-dihydropyridazin-4-yl)isoindolin-1-yl)methyl)(methyl)amino)propanoyl)piperazin-1-yl)nicotinonitrile] showed an IC50 below 100 nM.

The molecule `CN(CCC(=O)N1CCN(c2ccc(C#N)cn2)CC1)C[C@H]1c2ccccc2CN1c1cn[nH]c(=O)c1Cl` [Example 430, (R)-6-(4-(3-(((2-(5-Chloro-6-oxo-1,6-dihydropyridazin-4-yl)isoindolin-1-yl)methyl)(methyl)amino)propanoyl)piperazin-1-yl)nicotinonitrile] yielded an IC50 of 100 to 1000 nM.

Turning to `N#Cc1ccc(N2CCN(C(=O)CCOC[C@@H]3c4ncccc4CN3c3cn[nH]c(=O)c3Cl)CC2)nc1` [Example 431, (S)-6-(4-(3-((6-(5-Chloro-6-oxo-1,6-dihydropyridazin-4-yl)-6,7-dihydro-5H-pyrrolo[3,4-b]pyridin-7-yl)methoxy)propanoyl)piperazin-1-yl)nicotinonitrile], the IC50 was below 100 nM.

In turn, `N#Cc1ccc(N2CCN(C(=O)CCOC[C@H]3c4ncccc4CN3c3cn[nH]c(=O)c3Cl)CC2)nc1` [Example 432, (R)-6-(4-(3-((6-(5-Chloro-6-oxo-1,6-dihydropyridazin-4-yl)-6,7-dihydro-5H-pyrrolo[3,4-b]pyridin-7-yl)methoxy)propanoyl)piperazin-1-yl)nicotinonitrile] registered an IC50 of 100 to 1000 nM.

Turning to `O=C(CCNC[C@@H]1c2ccccc2CN1c1cn[nH]c(=O)c1C(F)(F)F)N1CCN(c2ncc(C(F)(F)F)cn2)CC1` [Example 433, (S)-5-(1-(((3-Oxo-3-(4-(5-(trifluoromethyl)pyrimidin-2-yl)piperazin-1-yl)propyl)amino)methyl)isoindolin-2-yl)-4-(trifluoromethyl)pyridazin-3(2H)-one], the IC50 is below 100 nM.

Take `O=C(CCNC[C@H]1c2ccccc2CN1c1cn[nH]c(=O)c1C(F)(F)F)N1CCN(c2ncc(C(F)(F)F)cn2)CC1` [Example 434, (R)-5-(1-(((3-Oxo-3-(4-(5-(trifluoromethyl)pyrimidin-2-yl)piperazin-1-yl)propyl)amino)methyl)isoindolin-2-yl)-4-(trifluoromethyl)pyridazin-3(2H)-one]: the IC50 was at least 1000 nM.

With `N#Cc1ccc(N2CCN(C(=O)c3cccc(OCC4CCCN4c4cn[nH]c(=O)c4C(F)(F)F)c3)CC2)nc1` (centres unmarked) [Example 435, 6-(4-(3-((1-(6-Oxo-5-(trifluoromethyl)-1,6-dihydropyridazin-4-yl)pyrrolidin-2-yl)methoxy)benzoyl)piperazin-1-yl)nicotinonitrile], the IC50 is below 100 nM.

On to `O=C(c1cccc(OCC2CCCN2c2cn[nH]c(=O)c2C(F)(F)F)c1)N1CCn2c(nnc2C(F)(F)F)C1` (centres unmarked) [Example 436, 4-(Trifluoromethyl)-5-(2-((3-(3-(trifluoromethyl)-5,6,7,8-tetrahydro-[1,2,4]triazolo[4,3-a]pyrazine-7-carbonyl)phenoxy)methyl)pyrrolidin-1-yl)pyridazin-3(2H)-one], for which the IC50 lay in the range of 100 to 1000 nM.

In the case of `N#Cc1cnc(N2CCN(C(=O)c3cccc(OCC4CCCN4c4cn[nH]c(=O)c4C(F)(F)F)c3)CC2)nc1` (centres unmarked) [Example 437, 2-(4-(3-((1-(6-Oxo-5-(trifluoromethyl)-1,6-dihydropyridazin-4-yl)pyrrolidin-2-yl)methoxy)benzoyl)piperazin-1-yl)pyrimidine-5-carbonitrile], the IC50 is below 100 nM.

Molecule `N#Cc1cnc(N2CCN(C(=O)c3cccc(OC[C@H]4CCCN4c4cn[nH]c(=O)c4C(F)(F)F)c3)CC2)nc1` [Example 438, (R)-2-(4-(3-((1-(6-Oxo-5-(trifluoromethyl)-1,6-dihydropyridazin-4-yl)pyrrolidin-2-yl)methoxy)benzoyl)piperazin-1-yl)pyrimidine-5-carbonitrile] registered an IC50 of at least 1000 nM.

The molecule `N#Cc1cnc(N2CCN(C(=O)c3cccc(OC[C@@H]4CCCN4c4cn[nH]c(=O)c4C(F)(F)F)c3)CC2)nc1` [Example 439, (S)-2-(4-(3-((1-(6-Oxo-5-(trifluoromethyl)-1,6-dihydropyridazin-4-yl)pyrrolidin-2-yl)methoxy)benzoyl)piperazin-1-yl)pyrimidine-5-carbonitrile] had an IC50 below 100 nM.

Take `O=C(c1cccc(OC[C@@H]2CCCN2c2cn[nH]c(=O)c2C(F)(F)F)c1)N1CCN(c2ccc(C(F)(F)F)cn2)CC1` [Example 440, (S)-4-(Trifluoromethyl)-5-(2-((3-(4-(5-(trifluoromethyl)pyridin-2-yl)piperazine-1-carbonyl)phenoxy)methyl)pyrrolidin-1-yl)pyridazin-3(2H)-one]: the IC50 was below 100 nM.

`O=C(c1cccc(OC[C@@H]2CCCN2c2cn[nH]c(=O)c2C(F)(F)F)c1)N1CCN(c2ncc(C(F)(F)F)cn2)CC1` [Example 441, (S)-4-(Trifluoromethyl)-5-(2-((3-(4-(5-(trifluoromethyl)pyrimidin-2-yl)piperazine-1-carbonyl)phenoxy)methyl)pyrrolidin-1-yl)pyridazin-3(2H)-one] returned an IC50 below 100 nM.

Molecule `N#Cc1ccc(N2CCN(C(=O)c3cncc(OCC4CCCN4c4cn[nH]c(=O)c4C(F)(F)F)c3)CC2)nc1` (centres unmarked) [Example 442, 6-(4-(5-((1-(6-Oxo-5-(trifluoromethyl)-1,6-dihydropyridazin-4-yl)pyrrolidin-2-yl)methoxy)nicotinoyl)piperazin-1-yl)nicotinonitrile] gave an IC50 below 100 nM.

The molecule `N#Cc1cnc(N2CCN(C(=O)c3cccc(OC[C@@H]4CCCN4c4cn[nH]c(=O)c4C(F)(F)F)c3)CC2)cn1` [Example 443, (S)-5-(4-(3-((1-(6-Oxo-5-(trifluoromethyl)-1,6-dihydropyridazin-4-yl)pyrrolidin-2-yl)methoxy)benzoyl)piperazin-1-yl)pyrazine-2-carbonitrile] showed an IC50 below 100 nM.

`N#Cc1cnc(N2CCN(C(=O)c3cncc(OC[C@@H]4CCCN4c4cn[nH]c(=O)c4C(F)(F)F)c3)CC2)cn1` [Example 444, (S)-5-(4-(5-((1-(6-Oxo-5-(trifluoromethyl)-1,6-dihydropyridazin-4-yl)pyrrolidin-2-yl)methoxy)nicotinoyl)piperazin-1-yl)pyrazine-2-carbonitrile] returned an IC50 below 100 nM.

Molecule `O=C(c1cccc(OC[C@@H]2CCCN2c2cn[nH]c(=O)c2C(F)(F)F)c1)N1CCN(c2ncccn2)CC1` [Example 445, (S)-5-(2-((3-(4-(Pyrimidin-2-yl)piperazine-1-carbonyl)phenoxy)methyl)pyrrolidin-1-yl)-4-(trifluoromethyl)pyridazin-3(2H)-one] registered an IC50 below 100 nM.

The molecule `Cc1ccc(N2CCN(C(=O)c3cccc(OC[C@@H]4CCCN4c4cn[nH]c(=O)c4C(F)(F)F)c3)CC2)nc1` [Example 446, (S)-5-(2-((3-(4-(5-Methylpyridin-2-yl)piperazine-1-carbonyl)phenoxy)methyl)pyrrolidin-1-yl)-4-(trifluoromethyl)pyridazin-3(2H)-one] came in with an IC50 below 100 nM.

`Cc1cnc(N2CCN(C(=O)c3cccc(OC[C@@H]4CCCN4c4cn[nH]c(=O)c4C(F)(F)F)c3)CC2)nc1` [Example 447, (S)-5-(2-((3-(4-(5-Methylpyrimidin-2-yl)piperazine-1-carbonyl)phenoxy)methyl)pyrrolidin-1-yl)-4-(trifluoromethyl)pyridazin-3(2H)-one] displayed an IC50 below 100 nM.

Take `O=C(COC[C@@H]1CCCN1c1cn[nH]c(=O)c1C(F)(F)F)N1CCN(c2ccccn2)CC1` [Example 448, (S)-5-(2-((2-Oxo-2-(4-(pyridin-2-yl)piperazin-1-yl)ethoxy)methyl)pyrrolidin-1-yl)-4-(trifluoromethyl)pyridazin-3(2H)-one]: the IC50 was 100 to 1000 nM.

The molecule `CC(=O)N1CCN(C(=O)c2cccc(OC[C@@H]3CCCN3c3cn[nH]c(=O)c3C(F)(F)F)c2)CC1` [Example 449, (S)-5-(2-((3-(4-Acetylpiperazine-1-carbonyl)phenoxy)methyl)pyrrolidin-1-yl)-4-(trifluoromethyl)pyridazin-3(2H)-one] yielded an IC50 of 100 to 1000 nM.

On to `CC1CN(c2ccc(C#N)cn2)CCN1C(=O)c1cccc(OC[C@@H]2CCCN2c2cn[nH]c(=O)c2C(F)(F)F)c1` (stereo partly drawn) [Example 450, 6-(3-methyl-4-(3-(((S)-1-(6-Oxo-5-(trifluoromethyl)-1,6-dihydropyridazin-4-yl)pyrrolidin-2-yl)methoxy)benzoyl)piperazin-1-yl)nicotinonitrile], for which the IC50 is below 100 nM.

Molecule `O=C(c1cccc(OC[C@@H]2CCCN2c2cn[nH]c(=O)c2C(F)(F)F)c1)N1CCn2cnnc2C1` [Example 451, (S)-5-(2-((3-(5,6,7,8-Tetrahydro-[1,2,4]triazolo[4,3-a]pyrazine-7-carbonyl)phenoxy)methyl)pyrrolidin-1-yl)-4-(trifluoromethyl)pyridazin-3(2H)-one] came in with an IC50 of 100 to 1000 nM.

For `N#Cc1ccc(N2CCN(C(=O)c3cccc(OC[C@@H]4C[C@H](C#N)CN4c4cn[nH]c(=O)c4C(F)(F)F)c3)CC2)nc1` [Example 452, 6-(4-(3-(((2S,4S)-4-Cyano-1-(6-oxo-5-(trifluoromethyl)-1,6-dihydropyridazin-4-yl)pyrrolidin-2-yl)methoxy)benzoyl)piperazin-1-yl)nicotinonitrile], the IC50 is below 100 nM.

These data come from patent US10550105B2 (Ribon Therapeutics Inc., priority 2018, dated 2020).
